Assay results taken from ChEMBL document CHEMBL1201862, “PubChem BioAssay data set” (2004).
Active and inactive are the calls of the source.

Experiments:
[1] = molecular target: T1, Hexokinase HKDC1 (Homo sapiens, UniProt Q2TB90); test: HKDC1 hexokinase inhibitors, dose response, biochemical, W721R variant (AID 504729); format: functional
T1 sequence (Q2TB90 whole entry): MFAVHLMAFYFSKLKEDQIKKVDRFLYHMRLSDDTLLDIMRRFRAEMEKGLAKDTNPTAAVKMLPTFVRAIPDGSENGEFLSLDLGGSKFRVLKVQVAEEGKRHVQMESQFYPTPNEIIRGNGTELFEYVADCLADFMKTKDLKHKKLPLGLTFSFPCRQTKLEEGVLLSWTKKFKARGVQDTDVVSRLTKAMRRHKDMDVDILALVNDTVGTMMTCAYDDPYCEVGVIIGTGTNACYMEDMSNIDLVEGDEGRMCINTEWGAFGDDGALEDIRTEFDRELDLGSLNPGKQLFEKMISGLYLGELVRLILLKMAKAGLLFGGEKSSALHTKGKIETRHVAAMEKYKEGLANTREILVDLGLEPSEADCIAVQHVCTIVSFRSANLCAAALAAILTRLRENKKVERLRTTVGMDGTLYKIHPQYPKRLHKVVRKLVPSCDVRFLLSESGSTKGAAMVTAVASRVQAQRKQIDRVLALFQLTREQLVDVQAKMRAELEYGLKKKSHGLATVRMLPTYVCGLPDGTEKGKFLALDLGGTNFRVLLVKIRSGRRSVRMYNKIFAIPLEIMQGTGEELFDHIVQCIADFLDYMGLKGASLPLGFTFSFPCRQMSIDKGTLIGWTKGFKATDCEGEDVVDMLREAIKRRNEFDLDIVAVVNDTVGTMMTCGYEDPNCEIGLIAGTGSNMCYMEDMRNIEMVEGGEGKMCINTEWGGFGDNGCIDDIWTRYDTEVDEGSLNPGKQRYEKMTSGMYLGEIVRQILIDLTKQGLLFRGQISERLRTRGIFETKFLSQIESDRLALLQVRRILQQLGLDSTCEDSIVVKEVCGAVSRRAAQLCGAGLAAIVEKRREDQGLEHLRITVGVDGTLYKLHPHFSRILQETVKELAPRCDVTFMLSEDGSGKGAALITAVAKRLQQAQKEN

[2] = molecular target: Induced myeloid leukemia cell differentiation protein Mcl-1 (Homo sapiens, UniProt Q07820); format: functional
Sequence of Induced myeloid leukemia cell differentiation protein Mcl-1 (Q07820 whole entry, the tested form may be a part): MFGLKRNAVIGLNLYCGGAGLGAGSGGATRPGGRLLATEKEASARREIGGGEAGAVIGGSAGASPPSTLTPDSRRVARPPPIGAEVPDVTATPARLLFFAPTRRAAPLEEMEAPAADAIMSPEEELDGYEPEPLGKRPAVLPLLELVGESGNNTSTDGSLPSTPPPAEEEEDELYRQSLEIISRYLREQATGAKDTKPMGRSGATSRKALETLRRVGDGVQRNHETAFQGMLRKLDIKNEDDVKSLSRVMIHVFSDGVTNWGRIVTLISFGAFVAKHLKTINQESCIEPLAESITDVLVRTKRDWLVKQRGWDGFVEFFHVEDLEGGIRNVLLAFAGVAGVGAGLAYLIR

[3] = molecular target: T2, Nucleotide-binding oligomerization domain-containing protein 1 (Homo sapiens, UniProt Q9Y239); test: NOD1 signaling inhibitors, SAR follow-up, revised (AID 2333); format: functional
T2 sequence (Q9Y239 whole entry): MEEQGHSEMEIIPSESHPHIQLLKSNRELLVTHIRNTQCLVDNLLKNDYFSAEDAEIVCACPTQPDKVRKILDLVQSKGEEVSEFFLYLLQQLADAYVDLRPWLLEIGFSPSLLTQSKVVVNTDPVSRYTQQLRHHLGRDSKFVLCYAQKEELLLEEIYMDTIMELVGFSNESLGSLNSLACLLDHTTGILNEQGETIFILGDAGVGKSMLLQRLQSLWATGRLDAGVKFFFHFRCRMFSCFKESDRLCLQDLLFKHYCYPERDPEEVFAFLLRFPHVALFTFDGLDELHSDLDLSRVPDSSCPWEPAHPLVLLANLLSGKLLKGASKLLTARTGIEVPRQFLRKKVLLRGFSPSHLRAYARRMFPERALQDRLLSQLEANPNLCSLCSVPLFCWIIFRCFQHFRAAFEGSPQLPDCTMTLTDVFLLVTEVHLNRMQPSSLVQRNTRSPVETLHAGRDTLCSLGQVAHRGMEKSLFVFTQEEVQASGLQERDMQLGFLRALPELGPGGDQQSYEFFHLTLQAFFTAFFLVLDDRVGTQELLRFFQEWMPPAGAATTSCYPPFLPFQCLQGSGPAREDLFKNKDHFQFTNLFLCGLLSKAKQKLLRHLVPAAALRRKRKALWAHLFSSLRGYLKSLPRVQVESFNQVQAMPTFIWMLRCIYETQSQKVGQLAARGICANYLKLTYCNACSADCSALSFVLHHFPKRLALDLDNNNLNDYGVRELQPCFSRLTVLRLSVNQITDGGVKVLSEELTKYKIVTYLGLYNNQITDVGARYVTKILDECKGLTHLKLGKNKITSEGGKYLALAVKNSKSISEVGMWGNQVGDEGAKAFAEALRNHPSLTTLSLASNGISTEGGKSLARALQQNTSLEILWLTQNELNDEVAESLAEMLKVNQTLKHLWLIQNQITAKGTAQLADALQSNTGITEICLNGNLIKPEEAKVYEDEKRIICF

[4] = test system: HEK293; test: cells; conditions: Homo sapiens;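 further: cells exposed to compound for 14 hours overnight before viability readout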
[5] = molecular target: Tumor necrosis factor (Homo sapiens, UniProt P01375); test: TNFa-triggered NF-kB activation inhibitors, SAR follow-up, cell-based, revised (AID 2337); format: functional
Sequence of Tumor necrosis factor (P01375 whole entry, the tested form may be a part): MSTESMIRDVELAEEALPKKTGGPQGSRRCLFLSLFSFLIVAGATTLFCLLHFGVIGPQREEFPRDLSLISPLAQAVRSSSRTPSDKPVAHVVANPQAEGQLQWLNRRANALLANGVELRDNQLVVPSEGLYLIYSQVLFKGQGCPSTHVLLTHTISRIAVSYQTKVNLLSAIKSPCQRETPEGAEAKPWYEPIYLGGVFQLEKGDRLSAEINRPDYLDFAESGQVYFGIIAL

[6] = molecular target: Nucleotide-binding oligomerization domain-containing protein 2 (Homo sapiens, UniProt Q9HC29); test: PubChem AID 2334; format: functional
Sequence of Nucleotide-binding oligomerization domain-containing protein 2 (Q9HC29 whole entry, the tested form may be a part): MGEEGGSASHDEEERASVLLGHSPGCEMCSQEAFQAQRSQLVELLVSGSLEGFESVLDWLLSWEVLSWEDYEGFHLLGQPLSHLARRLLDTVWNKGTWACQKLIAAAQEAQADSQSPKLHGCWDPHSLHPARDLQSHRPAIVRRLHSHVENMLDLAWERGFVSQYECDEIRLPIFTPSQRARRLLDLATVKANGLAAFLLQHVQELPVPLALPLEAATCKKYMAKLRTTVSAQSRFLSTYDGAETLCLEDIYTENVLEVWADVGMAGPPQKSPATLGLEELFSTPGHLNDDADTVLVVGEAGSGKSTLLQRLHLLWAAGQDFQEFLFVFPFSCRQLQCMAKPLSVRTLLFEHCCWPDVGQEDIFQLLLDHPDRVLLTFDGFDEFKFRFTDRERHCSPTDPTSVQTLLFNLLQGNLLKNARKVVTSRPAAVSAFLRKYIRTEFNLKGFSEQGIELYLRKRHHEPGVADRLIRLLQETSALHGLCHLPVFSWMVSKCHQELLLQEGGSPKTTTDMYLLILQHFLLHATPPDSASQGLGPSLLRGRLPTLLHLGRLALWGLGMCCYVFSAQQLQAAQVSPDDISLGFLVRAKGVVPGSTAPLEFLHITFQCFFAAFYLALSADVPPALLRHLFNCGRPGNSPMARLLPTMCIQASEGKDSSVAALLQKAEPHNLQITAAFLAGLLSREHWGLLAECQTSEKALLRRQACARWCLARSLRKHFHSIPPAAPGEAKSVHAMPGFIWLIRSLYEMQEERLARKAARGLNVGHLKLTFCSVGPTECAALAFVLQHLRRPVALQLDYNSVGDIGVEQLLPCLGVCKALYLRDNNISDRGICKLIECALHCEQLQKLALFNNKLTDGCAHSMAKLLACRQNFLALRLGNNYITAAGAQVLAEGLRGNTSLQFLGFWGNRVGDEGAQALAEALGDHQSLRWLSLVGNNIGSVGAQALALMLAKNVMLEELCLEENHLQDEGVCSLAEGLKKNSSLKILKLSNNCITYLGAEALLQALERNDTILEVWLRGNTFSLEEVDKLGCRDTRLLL

[7] = test system: BJ; test: cells; format: functional, cell-based; conditions: Homo sapiens
[8] = test system: BJ; test: cytotoxicity toward BJ-TERT-LT-ST fibroblasts, dose response, cell-based, RAS-independent, luminescence (AID 1935); format: functional; conditions: Homo sapiens;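 further: BJ fibroblasts immortalized with TERT plus LT and ST oncogenes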
[9] = molecular target: T3, Bcl-2-like protein 10 (Homo sapiens, UniProt Q9HD36); test: displacers of TR3 peptide from Bcl-B, primary screen, selectivity assay for Bfl-1 inhibitor project, biochemical, fluorescence polarization, FITC-TR3 peptide (AID 748);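 further: fluorescence polarization from a fluorescein-labelled TR3 peptide binding purified Bcl-B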
T3 sequence (Q9HD36 whole entry): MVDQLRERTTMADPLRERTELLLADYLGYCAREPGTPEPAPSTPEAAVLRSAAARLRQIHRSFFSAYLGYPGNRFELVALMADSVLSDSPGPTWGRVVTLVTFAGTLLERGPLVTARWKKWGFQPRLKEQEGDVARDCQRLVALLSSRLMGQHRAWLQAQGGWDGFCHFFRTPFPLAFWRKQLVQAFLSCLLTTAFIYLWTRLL

[10] = cytotoxicity toward DRD oncogenic fibroblasts, dose response, cell-based, non-viral oncogenic, luminescence (AID 1934); format: functional; conditions: Homo sapiens
[11] = molecular target: T4, Voltage-gated N-type calcium channel alpha-1B subunit/Amyloid beta A4 precursor protein-binding family A member 1 (Homo sapiens, UniProt Q00975+Q02410); format: protein assay
T4 sequence (Q00975 whole entry): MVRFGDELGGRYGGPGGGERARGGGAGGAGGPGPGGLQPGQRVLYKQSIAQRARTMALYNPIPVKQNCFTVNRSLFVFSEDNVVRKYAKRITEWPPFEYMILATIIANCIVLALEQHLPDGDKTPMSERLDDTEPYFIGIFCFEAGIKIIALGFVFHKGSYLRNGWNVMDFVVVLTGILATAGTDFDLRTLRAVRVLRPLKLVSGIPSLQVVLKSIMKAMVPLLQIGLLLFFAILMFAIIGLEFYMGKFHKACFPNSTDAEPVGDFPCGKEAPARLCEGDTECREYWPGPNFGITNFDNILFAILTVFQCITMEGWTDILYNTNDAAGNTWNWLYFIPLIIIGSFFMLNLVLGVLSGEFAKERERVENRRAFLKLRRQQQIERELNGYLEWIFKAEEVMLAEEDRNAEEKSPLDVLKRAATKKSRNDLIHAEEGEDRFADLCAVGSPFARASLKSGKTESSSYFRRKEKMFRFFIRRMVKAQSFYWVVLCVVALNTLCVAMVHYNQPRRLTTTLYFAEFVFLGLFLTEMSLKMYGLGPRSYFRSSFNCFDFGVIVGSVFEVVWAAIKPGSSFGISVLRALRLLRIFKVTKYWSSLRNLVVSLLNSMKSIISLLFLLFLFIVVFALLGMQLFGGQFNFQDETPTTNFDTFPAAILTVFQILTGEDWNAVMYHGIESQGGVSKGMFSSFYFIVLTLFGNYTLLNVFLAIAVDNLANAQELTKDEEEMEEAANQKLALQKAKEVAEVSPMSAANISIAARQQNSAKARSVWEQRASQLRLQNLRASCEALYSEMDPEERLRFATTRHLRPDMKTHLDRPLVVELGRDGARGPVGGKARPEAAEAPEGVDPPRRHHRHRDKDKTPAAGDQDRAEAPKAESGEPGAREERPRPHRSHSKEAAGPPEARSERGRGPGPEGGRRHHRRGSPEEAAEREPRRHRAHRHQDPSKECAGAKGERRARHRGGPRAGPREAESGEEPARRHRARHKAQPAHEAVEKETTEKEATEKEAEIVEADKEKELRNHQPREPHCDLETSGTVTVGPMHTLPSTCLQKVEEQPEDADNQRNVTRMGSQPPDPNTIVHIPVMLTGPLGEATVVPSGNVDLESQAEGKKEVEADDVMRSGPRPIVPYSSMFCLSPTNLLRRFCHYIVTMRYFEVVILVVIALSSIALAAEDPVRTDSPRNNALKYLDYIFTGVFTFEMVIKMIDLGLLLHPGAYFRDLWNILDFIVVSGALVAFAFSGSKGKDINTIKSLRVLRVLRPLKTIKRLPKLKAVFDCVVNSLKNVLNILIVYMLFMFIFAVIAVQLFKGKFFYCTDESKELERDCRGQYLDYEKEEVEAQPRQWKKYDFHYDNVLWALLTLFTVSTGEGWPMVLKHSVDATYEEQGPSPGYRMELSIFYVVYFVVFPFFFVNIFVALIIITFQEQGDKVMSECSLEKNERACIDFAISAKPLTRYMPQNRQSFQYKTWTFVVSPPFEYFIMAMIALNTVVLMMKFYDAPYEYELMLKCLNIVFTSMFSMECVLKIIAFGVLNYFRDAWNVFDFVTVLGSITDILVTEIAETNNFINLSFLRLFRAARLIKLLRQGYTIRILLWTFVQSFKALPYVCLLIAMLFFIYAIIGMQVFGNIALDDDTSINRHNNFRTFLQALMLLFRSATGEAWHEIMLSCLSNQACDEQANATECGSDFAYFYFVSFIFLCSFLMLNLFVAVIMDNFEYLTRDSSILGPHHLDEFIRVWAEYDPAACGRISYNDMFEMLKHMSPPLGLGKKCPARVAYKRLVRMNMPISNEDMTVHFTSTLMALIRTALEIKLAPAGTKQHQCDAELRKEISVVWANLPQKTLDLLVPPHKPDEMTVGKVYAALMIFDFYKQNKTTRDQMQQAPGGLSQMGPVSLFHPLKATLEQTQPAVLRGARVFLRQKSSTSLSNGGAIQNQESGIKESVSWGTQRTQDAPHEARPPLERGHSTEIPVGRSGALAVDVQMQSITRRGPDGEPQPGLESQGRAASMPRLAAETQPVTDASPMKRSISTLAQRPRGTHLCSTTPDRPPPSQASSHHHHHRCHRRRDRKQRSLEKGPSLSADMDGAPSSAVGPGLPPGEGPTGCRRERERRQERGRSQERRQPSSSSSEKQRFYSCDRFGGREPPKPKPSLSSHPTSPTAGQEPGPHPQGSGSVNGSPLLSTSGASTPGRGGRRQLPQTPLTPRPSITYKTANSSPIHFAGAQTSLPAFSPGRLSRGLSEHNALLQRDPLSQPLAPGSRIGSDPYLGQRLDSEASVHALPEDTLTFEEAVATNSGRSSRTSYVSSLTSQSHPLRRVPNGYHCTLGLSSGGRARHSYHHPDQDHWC
T4 sequence (Q02410 whole entry): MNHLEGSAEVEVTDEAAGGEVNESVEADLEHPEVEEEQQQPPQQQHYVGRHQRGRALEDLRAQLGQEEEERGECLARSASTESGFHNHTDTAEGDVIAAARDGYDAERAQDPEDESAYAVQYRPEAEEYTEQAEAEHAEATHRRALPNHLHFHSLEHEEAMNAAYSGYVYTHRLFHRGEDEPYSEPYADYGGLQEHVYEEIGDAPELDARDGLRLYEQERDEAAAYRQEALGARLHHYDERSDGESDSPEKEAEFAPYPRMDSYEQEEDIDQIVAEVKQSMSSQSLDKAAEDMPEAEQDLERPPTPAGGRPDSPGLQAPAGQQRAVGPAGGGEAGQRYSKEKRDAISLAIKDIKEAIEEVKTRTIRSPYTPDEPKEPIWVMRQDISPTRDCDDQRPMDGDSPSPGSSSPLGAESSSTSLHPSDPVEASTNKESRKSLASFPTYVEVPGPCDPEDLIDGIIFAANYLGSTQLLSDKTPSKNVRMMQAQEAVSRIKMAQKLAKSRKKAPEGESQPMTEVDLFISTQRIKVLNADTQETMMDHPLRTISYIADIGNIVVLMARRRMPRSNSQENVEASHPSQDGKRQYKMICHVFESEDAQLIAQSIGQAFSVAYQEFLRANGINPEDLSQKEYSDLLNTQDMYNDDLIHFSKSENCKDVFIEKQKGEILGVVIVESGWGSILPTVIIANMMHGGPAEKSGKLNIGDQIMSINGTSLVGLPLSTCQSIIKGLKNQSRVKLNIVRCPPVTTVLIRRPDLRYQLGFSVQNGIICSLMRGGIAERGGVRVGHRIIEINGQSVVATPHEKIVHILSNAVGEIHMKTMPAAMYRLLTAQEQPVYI

[12] = molecular target: T5, Estrogen receptor (Homo sapiens, UniProt P03372);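 further: potency for inhibiting coactivator peptide recruitment to the receptor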
T5 sequence (P03372 whole entry): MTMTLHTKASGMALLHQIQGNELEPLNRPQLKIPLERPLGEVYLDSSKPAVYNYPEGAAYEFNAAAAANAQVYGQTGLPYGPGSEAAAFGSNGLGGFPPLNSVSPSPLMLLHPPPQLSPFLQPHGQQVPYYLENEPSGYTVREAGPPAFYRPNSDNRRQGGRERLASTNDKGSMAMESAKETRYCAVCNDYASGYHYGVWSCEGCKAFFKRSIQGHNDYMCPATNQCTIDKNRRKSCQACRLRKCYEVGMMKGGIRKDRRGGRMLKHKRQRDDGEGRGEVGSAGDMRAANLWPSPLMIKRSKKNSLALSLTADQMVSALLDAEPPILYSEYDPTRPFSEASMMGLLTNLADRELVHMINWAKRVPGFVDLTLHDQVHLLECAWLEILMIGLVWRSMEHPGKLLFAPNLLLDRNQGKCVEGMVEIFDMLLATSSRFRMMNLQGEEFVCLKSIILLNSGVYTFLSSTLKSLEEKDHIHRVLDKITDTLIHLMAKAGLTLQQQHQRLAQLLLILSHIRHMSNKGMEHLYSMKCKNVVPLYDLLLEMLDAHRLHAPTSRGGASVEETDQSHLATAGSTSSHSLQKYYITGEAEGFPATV

[13] = molecular target: T6, Heat shock factor protein 1 (Mus musculus, UniProt P38532); test: HSF1 potentiators in luciferase reporter cells, confirmation, cell-based, NIH3T3, luminescence, dose retest (AID 435004); format: functional;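 further: stress induced by proteasome inhibitor MG132 added 30 min after compound; luciferase reporter driven by HSF1 response element in NIH3T3 cells; actives raise luminescence as potentiators of the MG132 stress response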
T6 sequence (P38532 whole entry): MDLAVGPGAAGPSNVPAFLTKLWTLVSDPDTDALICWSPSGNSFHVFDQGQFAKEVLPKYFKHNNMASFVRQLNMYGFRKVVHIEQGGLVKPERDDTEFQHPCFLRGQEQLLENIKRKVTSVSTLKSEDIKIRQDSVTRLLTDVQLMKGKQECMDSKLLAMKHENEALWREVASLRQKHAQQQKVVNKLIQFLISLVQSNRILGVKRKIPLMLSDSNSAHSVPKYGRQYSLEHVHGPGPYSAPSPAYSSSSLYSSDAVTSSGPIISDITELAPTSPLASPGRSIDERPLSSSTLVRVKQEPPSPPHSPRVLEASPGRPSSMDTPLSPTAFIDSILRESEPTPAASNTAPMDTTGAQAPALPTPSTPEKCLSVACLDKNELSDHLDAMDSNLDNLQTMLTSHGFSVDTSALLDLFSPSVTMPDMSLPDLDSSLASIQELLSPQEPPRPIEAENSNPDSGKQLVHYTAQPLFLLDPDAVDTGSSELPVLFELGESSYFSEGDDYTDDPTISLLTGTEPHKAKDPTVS

[14] = molecular target: T4, Voltage-gated N-type calcium channel alpha-1B subunit/Amyloid beta A4 precursor protein-binding family A member 1; format: protein assay; remark: listed apart in the source
[15] = test system: BJ; test: cytotoxicity toward BJ-TERT fibroblasts, dose response, cell-based, RAS-independent, luminescence (AID 1933); format: functional; conditions: Homo sapiens
[16] = molecular target: T6, Heat shock factor protein 1; test: inhibition of MG132-induced HSE-luciferase signal, confirmation, cell-based, NIH3T3, luminescence, dose retest (AID 2382); format: functional;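 further: NIH3T3 fibroblasts with HSF1-driven luciferase reporter stressed by proteasome inhibitor MG132; luminescence from HSF1-driven luciferase expression after 8 hours of MG132 stress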
[17] = molecular target: G-protein coupled receptor 35 (Homo sapiens, UniProt Q9HC97); test: GPR35 antagonists blocking zaprinast-driven arrestin recruitment, primary screen, imaging, U2OS, beta-arrestin-GFP, zaprinast agonist (AID 2058); format: functional;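 further: antagonist potency meaning inhibition of agonist-induced arrestin redistribution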

CCn1cc(C(=O)NCc2ccc3c(c2)OCO3)c2cc(OC)c(OC)cc2c1=O
IC50 [1]: 17.2 µM (active)
IC50 [2]: 7.31 µM (not active)

O=C(Nc1ccc(Cl)cc1)c1ccc(CCN2CCc3ccccc3C2)cc1
IC50 [3]: > 20 µM (inactive)
IC50 [4]: > 20 µM (inactive)
IC50 [5]: > 20 µM (inactive)
IC50 [6]: > 20 µM (inactive)

COc1ccc2cc(CCNC(=O)c3ccc(S(=O)(=O)N4CCCC4)cc3)c(O)nc2c1
IC50 [1]: 7.58 µM (active)

Cc1c(C(=O)OCC2CCCO2)[nH]c2c1C(=O)CC(c1ccco1)C2 (stereo not drawn)
EC50 [7]: 36.9 µM (active)
EC50 [8]: 23.6 µM (active)
IC50 [9]: 23.8 µM (active)
EC50 [10]: 21.8 µM (active)
IC50 [11]: > 50 µM (inactive)
IC50 [12]: 32.1 µM (not active)
EC50 [13]: > 260 µM (inactive)
IC50 [14]: 21.9 µM (active)
EC50 [15]: 12.2 µM (active)

CC(=O)c1ccc(NC(=O)C(C)n2nc(-c3ccccc3)c3cc(Cl)ccc32)cc1 (stereo not drawn)
EC50 [16]: > 195 µM (not active)
IC50 [17]: 1.78 µM (active)
